Test results: patent US12545685B2 (Daiichi Sankyo Company, Limited, priority 2011, dated 2026)

Columns and labels:
[1] = tested on: human lung cancer-derived cell line NCI-H460 having wild-type p53; assay: Cell growth inhibition assay (MTT); assay type: cell-based; conditions: 72 h, NCI-H460 cells, 3 days culture, values given as ranges, read-out: 50% growth inhibition concentration (GI50 value)
Description: A cell growth inhibition assay was conducted using a human lung cancer-derived cell line NCI-H460 having wild-type p53.
NCI-H460 cells were suspended in a medium (RPMI1640 medium containing 10% fetal bovine serum) and the suspension was added in an amount of 500 cells/150 μl/well to a 96-well plate. A test compound was dissolved in DMSO and this solution was diluted with medium to prepare a sample solution (DMSO concentration: 1% or lower). On the next day, medium nonsupplemented with the test compound, or the sample solution, was added in an amount of 50 μl/well. Cells were then cultured at 37° ° C. for 3 days in a 5% CO2 atmosphere.
An MTT assay was conducted immediately after the nonsupplemented medium or the sample solution was added. Another MTT assay was conducted after culturing the cells for 3 days. The MIT assays were conducted as shown below.
A 5 mg/ml MTT (3-(4,5-dimethylthiazol-2-yl)-2,5-diphenyltetrazolium bromide, Sigma-Aldrich Co., M-2128) solution was prepared using a phosphate buffer solution (Dulbecco's Phosphate-buffered Saline). This MIT solution was added in an amount of 20 μl/well. Then the plate was cultured at 37° ° C. for 4 hours in a 5% CO2 atmosphere. The plate was centrifuged at 1200 rpm for 5 minutes and then the culture supernatant was removed by aspiration using a dispenser. DMSO was added in an amount of 150 μl/well to dissolve generated formazan. The plate was stirred using a plate mixer for uniform color development from each well. The absorbance of each well was measured at OD 540 nm and at a reference OD (660 nm) using a plate reader (SpectraMax PLUS384, Molecular Devices, CA, USA).
The OD value measured on the day of adding the sample solution was defined as S. The OD value measured three days after addition of the sample solution was defined as T. The OD value measured three days after addition of the DMSO dilution was defined as C. T/C (%) was determined at each concentration according to the formula shown below in order to prepare a dose response curve, from which 50% growth inhibition concentration (GI50 value) was calculated.

[2] = target: T1, Mdm2/p53 binding (GST-Mdm2 / His-p53) (Homo sapiens, UniProt Q00987, L33E); assay: Mdm2/p53 binding assay (HTRF, His-p53 and GST-Mdm2); conditions: His-p53 (aa 1-132) and GST-Mdm2 (aa 25-108, L33E) 6.25 nM each; 25°C, 1 hour; values given as ranges
T1 construct: Mdm2 partial protein having Mdm2 amino acids at positions 25 to 108
T1 sequence (Q00987 25-108 L33E): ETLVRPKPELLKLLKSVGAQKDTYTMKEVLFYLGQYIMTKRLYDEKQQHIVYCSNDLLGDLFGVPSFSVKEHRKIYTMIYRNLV
Procedure, shortened: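 Binding was detected by HTRF (ex 320 nm, em 620/665 nm) after 1 h at 25 °C, using Eu-cryptate anti-GST and XL665 anti-His antibodies. The protein pair was GST-Mdm2 (residues 25–108, L33E) with His-p53 (residues 1–132), each 6.25 nM in the protein dilution. T/C used no-compound control and no-p53 background, and IC50 came from sigmoid fitting.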

| Structure (SMILES) | GI50 [1] | IC50 [2] |
| --- | --- | --- |
| CC1(C)CCC2(CC1)N[C@@H](C(=O)N[C@H]1CC[C@H](c3nnco3)CC1)[C@H](c1ccnc(Cl)c1F)[C@]21C(=O)Nc2cc(Cl)ccc21 (relative stereo) [Example 18, (3′R, 4′S,5′R)-6″-chloro-4′-(2-chloro-3-fluoropyridin-4-yl)-4,4-dimethyl-N-[trans-4-(1,3,4-oxadiazol-2-yl)cyclohexyl]-2″-oxo-1″,2″-dihydrodispiro[cyclohexane-1,2′-pyrrolidine-3′,3″-indole]-5′-carboxamide] | 100 to 500 nM | 50 to 100 nM |
| CC1(C)CCC2(CC1)N[C@@H](C(=O)N[C@H]1CC[C@H](NC(=O)CO)CC1)[C@H](c1cccc(Cl)c1F)[C@]21C(=O)Nc2cc(Cl)ccc21 (relative stereo) [Example 24, (3′R, 4′S,5′R)-6″-chloro-4′-(3-chloro-2-fluorophenyl)-N-{trans-4-[(hydroxyacetyl)amino]cyclohexyl}-4,4-dimethyl-2″-oxo-1″,2″-dihydrodispiro[cyclohexane-1,2′-pyrrolidine-3′,3″-indole]-5′-carboxamide] | 100 to 500 nM | 50 to 100 nM |
| CC1(C)CCC2(CC1)N[C@@H](C(=O)N[C@H]1CC[C@H](c3nnco3)CC1)[C@H](c1ccnc(Cl)c1F)[C@]21C(=O)Nc2nc(Cl)ccc21 (relative stereo) [Example 26, (3′R, 4′S,5′R)-6″-chloro-4′-(2-chloro-3-fluoropyridin-4-yl)-4,4-dimethyl-N-[trans-4-(1,3,4-oxadiazol-2-yl)cyclohexyl]-2″-oxo-1″,2″-dihydrodispiro[cyclohexane-1,2′-pyrrolidine-3′,3″-pyrrolo[2,3-b]pyridine]-5′-carboxamide] | 500 to 1000 nM | 50 to 100 nM |
| CC1(C)CCC2(CC1)N[C@@H](C(=O)N[C@H]1CC[C@H](c3nnc[nH]3)CC1)[C@H](c1ccnc(Cl)c1F)[C@]21C(=O)Nc2cc(Cl)ccc21 (relative stereo) [Example 32, (3′R, 4′S,5′R)-6″-chloro-4′-(2-chloro-3-fluoropyridin-4-yl)-4,4-dimethyl-2″-oxo-N-[trans-4-(4H-1,2,4-triazol-3-yl)cyclohexyl]-1″,2″-dihydrodispiro[cyclohexane-1,2′-pyrrolidine-3′,3″-indole]-5′-carboxamide] | 100 to 500 nM | 50 to 100 nM |
| CC(O)[C@@H]1CC[C@@H](NC(=O)[C@@H]2NC3(CCC(C)(C)CC3)[C@@]3(C(=O)Nc4cc(Cl)ccc43)C2c2ccnc(Cl)c2)CO1 (single isomer, unassigned) [Example 77] | 100 to 500 nM | 1 to 50 nM |
| CC(O)[C@@H]1CC[C@@H](NC(=O)[C@@H]2NC3(CCC(C)(C)CC3)[C@@]3(C(=O)Nc4cc(Cl)ccc43)[C@H]2c2ccnc(Cl)c2F)CO1 (single isomer, unassigned) [Example 93] | 100 to 500 nM | 50 to 100 nM |
| CC1(C)CCC2(CC1)N[C@@H](C(=O)N[C@@H]1CC[C@@H](CO)OC1)[C@H](c1cccc(Cl)c1F)[C@]21C(=O)Nc2nc(Cl)ccc21 [Example 3, (3′R, 4′S,5′R)-6″-chloro-4′-(3-chloro-2-fluorophenyl)-N-[(3R,6S)-6-(hydroxymethyl)tetrahydro-2H-pyran-3-yl]-4,4-dimethyl-2″-oxo-1″,2″-dihydrodispiro[cyclohexane-1,2′-pyrrolidine-3′,3″-pyrrolo[2,3-b]pyridine]-5′-carboxamide] | 500 to 1000 nM | 1 to 50 nM |
| CC1(C)CCC2(CC1)N[C@@H](C(=O)N[C@@H]1CC[C@@H](CO)OC1)[C@H](c1cccc(Cl)c1F)[C@]21C(=O)Nc2cc(Cl)ccc21 [Example 8, (3′R, 4′S,5′R)-6″-chloro-4′-(3-chloro-2-fluorophenyl)-N-[(3R,6S)-6-(hydroxymethyl)tetrahydro-2H-pyran-3-yl]-4,4-dimethyl-2″-oxo-1″,2″-dihydrodispiro[cyclohexane-1,2′-pyrrolidine-3′,3″-indole]-5′-carboxamide] | 100 to 500 nM | 1 to 50 nM |
| CC1(C)CCC2(CC1)N[C@@H](C(=O)N[C@@H]1CC[C@@H](C(C)(C)O)OC1)[C@H](c1cccc(Cl)c1F)[C@]21C(=O)Nc2nc(Cl)ccc21 [Example 11, (3′R, 4′S,5′R)-6″-chloro-4′-(3-chloro-2-fluorophenyl)-N-[(3R,6S)-6-(1-hydroxy-1-methylethyl)tetrahydro-2H-pyran-3-yl]-4,4-dimethyl-2″-oxo-1″,2″-dihydrodispiro[cyclohexane-1,2′-pyrrolidine-3′,3″-pyrrolo[2,3-b]pyridine]-5′-carboxamide] | 500 to 1000 nM | 1 to 50 nM |
| CC1(C)CCC2(CC1)N[C@@H](C(=O)N[C@@H]1CC[C@@H](CO)OC1)[C@H](c1ccnc(Cl)c1)[C@]21C(=O)Nc2cc(Cl)ccc21 [Example 13, (3′R, 4′R, 5′R)-6″-chloro-4′-(2-chloropyridin-4-yl)-N-[(3R,6S)-6-(hydroxymethyl)tetrahydro-2H-pyran-3-yl]-4,4-dimethyl-2″-oxo-1″,2″-dihydrodispiro[cyclohexane-1,2′-pyrrolidine-3′,3″-indole]-5′-carboxamide] | 100 to 500 nM | 1 to 50 nM |
| CC1(C)CCC2(CC1)N[C@@H](C(=O)N[C@H]1CC[C@H](O)CC1)[C@H](c1cc(F)cc(Cl)c1)[C@]21C(=O)Nc2cc(Cl)ccc21 [Example 14, (3′R, 4′R, S′R)-6″-chloro-4′-(3-chloro-5-fluorophenyl)-N-(trans-4-hydroxycyclohexyl)-4,4-dimethyl-2″-oxo-1″,2″-dihydrodispiro[cyclohexane-1,2′-pyrrolidine-3′,3″-indole]-5′-carboxamide] | 500 to 1000 nM | 100 to 500 nM |
| CC1(C)CCC2(CC1)N[C@@H](C(=O)N[C@@H]1CC[C@@H](C(C)(C)O)OC1)[C@H](c1ccnc(Cl)c1F)[C@]21C(=O)Nc2cc(Cl)ccc21 [Example 17, (3′R, 4′S,5′R)-6″-chloro-4′-(2-chloro-3-fluoropyridin-4-yl)-N-[(3R,6S)-6-(1-hydroxy-1-methylethyl)tetrahydro-2H-pyran-3-yl]-4,4-dimethyl-2″-oxo-1″,2″-dihydrodispiro[cyclohexane-1,2′-pyrrolidine-3′,3″-indole]-5′-carboxamide] | 100 to 500 nM | 50 to 100 nM |
| CC1(C)CCC2(CC1)N[C@@H](C(=O)N[C@@H]1CC[C@@H](CO)OC1)[C@H](c1ccnc(Cl)c1F)[C@]21C(=O)Nc2cc(Cl)ccc21 [Example 20, (3′R, 4′S,5′R)-6″-chloro-4′-(2-chloro-3-fluoropyridin-4-yl)-N-[(3R,6S)-6-(hydroxymethyl)tetrahydro-2H-pyran-3-yl]-4,4-dimethyl-2″-oxo-1″,2″-dihydrodispiro[cyclohexane-1,2′-pyrrolidine-3′,3″-indole]-S′-carboxamide] | < 100 nM | 1 to 50 nM |
| CC1(C)CCC2(CC1)N[C@@H](C(=O)N[C@@H]1CC[C@@H](CO)OC1)[C@H](c1ccnc(Cl)c1F)[C@]21C(=O)Nc2cc(Cl)c(F)cc21 [Example 23, (3′R, 4′S,5′R)-6″-chloro-4′-(2-chloro-3-fluoropyridin-4-yl)-5″-fluoro-N-[(3R,6S)-6-(hydroxymethyl)tetrahydro-2H-pyran-3-yl]-4,4-dimethyl-2″-oxo-1″,2″-dihydrodispiro[cyclohexane-1,2′-pyrrolidine-3′,3″-indole]-5′-carboxamide] | 100 to 500 nM | 1 to 50 nM |
| CC1(C)CCC2(CC1)N[C@@H](C(=O)N[C@@H]1CC[C@@H](CO)OC1)[C@H](c1ccnc(Cl)c1F)[C@]21C(=O)Nc2nc(Cl)ccc21 [Example 25, (3′R, 4′S,5′R)-6″-chloro-4′-(2-chloro-3-fluoropyridin-4-yl)-N-[(3R,6S)-6-(hydroxymethyl)tetrahydro-2H-pyran-3-yl]-4,4-dimethyl-2″-oxo-1″,2″-dihydrodispiro[cyclohexane-1,2′-pyrrolidine-3′,3″-pyrrolo[2,3-b]pyridine]-5′-carboxamide] | 500 to 1000 nM | 1 to 50 nM |
| CC1(C)CCC2(CC1)N[C@@H](C(=O)N[C@@H]1CC[C@@H](CO)OC1)[C@H](c1cc(Cl)cc(CO)c1)[C@]21C(=O)Nc2cc(Cl)ccc21 [Example 28, (3′R, 4′R, 5′R)-6″-chloro-4′-[3-chloro-5-(hydroxymethyl)phenyl]-N-[(3R,6S)-6-(hydroxymethyl)tetrahydro-2H-pyran-3-yl]-4,4-dimethyl-2″-oxo-1″,2″-dihydrodispiro[cyclohexane-1,2′-pyrrolidine-3′,3″-indole]-5′-carboxamide] | 1000 to 5000 nM | 1 to 50 nM |
